# Test results from patent US10512264B2, “Herbicidal mixtures” (Syngenta Participations AG, priority 2015, dated 2019).
# Several values for one entry are separate records, joined by “and”; a condition that tells them apart may be missing. Identical values can stand only once.
# Experiments:
# Assay type in all cases: in vivo
# Conditions in all cases: 21 days after application
# [1] = test system: Digitaria sanguinalis (DIGSA); test: Herbicidal action, pre-emergence glasshouse test, Digitaria sanguinalis
# Procedure: (§1) Seeds of a variety of test species were sown in standard soil in pots. After cultivation for one day (pre-emergence) under controlled conditions in a glasshouse (at 24/18° C., at day/night; 16 hours light; 65% humidity), the plants were sprayed with an aqueous spray solution derived from the formulation of the technical active ingredient dissolved in acetone plus formulation A containing 10.56 wt % Emulsogen EL, 42.22 wt % N-MethylPyrrolidon, 2.22 wt % DPG-Monoethyl ether at a 1:20 ratio (technical active ingredient:formulation A). To achieve the mixture treatments, the appropriate concentration of the mixture partner (commercial formulation) was added to the solution in order to achieve the desired experimental compound:mixture partner ratio).
# (§2) After application, the test plants were grown in a glasshouse under controlled conditions (at 24/18° C. day/night; 16 hours light; 65% humidity) and watered twice daily. Herbicidal activity was evaluated 21 days after application in a 100-0 scale (100=total damage to plant; 0=no damage to plant).
# [2] = test system: Ambrosia artimisifolia (AMBEL); test: Herbicidal action, pre-emergence glasshouse test, Ambrosia artimisifolia
# Procedure: as §1, §2
# [3] = test system: Euphorbia heterophylla (EPHHL); test: Herbicidal action, pre-emergence glasshouse test, Euphorbia heterophylla
# Procedure: as §1, §2
# Ipomea purpurea (PHBPU) = test: Herbicidal action, pre-emergence glasshouse test, Ipomea purpurea
# Procedure: as §1, §2
# Setaria fabarii (SETFA) = test: Herbicidal action, pre-emergence glasshouse test, Setaria fabarii
# Procedure: as §1, §2
# Bidens pilosa (BIDPI) = test: Herbicidal action, pre-emergence glasshouse test, Bidens pilosa
# Procedure: as §1, §2
Compound,Activity (% of untreated) Observed ([1]; alone 100 g/ha),Activity (% of untreated) Observed ([1]; alone 250 g/ha),Activity (% of untreated) Observed ([2]; applied alone at 100 g/ha),Activity (% of untreated) Observed ([2]; applied alone at 250 g/ha),Activity (% of untreated) Observed ([3]; applied alone at 100 g/ha),Activity (% of untreated) Observed ([3]; applied alone at 250 g/ha),Activity (% of untreated) Observed (Ipomea purpurea (PHBPU); applied alone at 100 g/ha),Activity (% of untreated) Observed (Ipomea purpurea (PHBPU); applied alone at 250 g/ha),Activity (% of untreated) Observed (Setaria fabarii (SETFA); alone 100 g/ha),Activity (% of untreated) Observed (Setaria fabarii (SETFA); alone 250 g/ha),Activity (% of untreated) Observed (Bidens pilosa (BIDPI); applied alone at 10 g/ha),Activity (% of untreated) Observed (Bidens pilosa (BIDPI); applied alone at 25 g/ha),Activity (% of untreated) Observed ([1]; alone 10 g/ha),Activity (% of untreated) Observed ([1]; alone 50 g/ha),Activity (% of untreated) Observed ([2]; applied alone at 10 g/ha),Activity (% of untreated) Observed ([2]; applied alone at 50 g/ha),Activity (% of untreated) Observed (Ipomea purpurea (PHBPU); applied alone at 25 g/ha),Activity (% of untreated) Observed (Ipomea purpurea (PHBPU); applied alone at 50 g/ha),Activity (% of untreated) Observed (Setaria fabarii (SETFA); alone 10 g/ha),Activity (% of untreated) Observed (Setaria fabarii (SETFA); alone 50 g/ha),further results
COC1=C(C)C(O)N(c2cc(C(C)(C)C)ncn2)C1=O (stereo not drawn) [Compound 1.1],0 % of untreated,65 % of untreated,37.5 % of untreated,85 % of untreated,12.5 % of untreated,70 % of untreated,0 % of untreated,5 % of untreated,0 % of untreated,70 % of untreated,–,–,–,–,–,–,–,–,–,–,–
COC1=C(C)C(O)N(c2cc(C(C)(C)C)on2)C1=O (stereo not drawn) [Compound 1.2],0 % of untreated,5 % of untreated,42.5 % of untreated,92.5 % of untreated,10 % of untreated,80 % of untreated,2.5 % of untreated,35 % of untreated,0 % of untreated,72.5 % of untreated,–,–,–,–,–,–,–,–,–,–,Activity (% of untreated) Observed (Bidens pilosa (BIDPI); applied alone at 100 g/ha): 65 % of untreated; Activity (% of untreated) Observed (Bidens pilosa (BIDPI); applied alone at 250 g/ha): 85 % of untreated
CC1=C(Cl)C(=O)N(c2cc(C(C)(C)C)on2)C1O (stereo not drawn) [Compound 1.3],–,100 % of untreated,–,86 % of untreated and 99 % of untreated,–,87.5 % of untreated,–,85 % of untreated and 72.5 % of untreated,–,–,–,–,–,–,–,–,–,–,–,–,Activity (% of untreated) Observed ([1]; alone 31.25 g/ha): 0 % of untreated; Activity (% of untreated) Observed ([1]; alone 62.5 g/ha): 65 % of untreated; Activity (% of untreated) Observed ([1]; alone 125 g/ha): 99 % of untreated; Activity (% of untreated) Observed ([1]; alone 500 g/ha): 99.5 % of untreated and 99 % of untreated; Activity (% of untreated) Observed ([2]; applied alone at 31.25 g/ha): 85 % of untreated; Activity (% of untreated) Observed ([2]; applied alone at 62.5 g/ha): 97 % of untreated; Activity (% of untreated) Observed ([2]; applied alone at 125 g/ha): 85 % of untreated and 98.5 % of untreated; Activity (% of untreated) Observed ([2]; applied alone at 500 g/ha): 98.5 % of untreated and 99 % of untreated; Activity (% of untreated) Observed ([3]; applied alone at 31.25 g/ha): 5 % of untreated; Activity (% of untreated) Observed ([3]; applied alone at 62.5 g/ha): 15 % of untreated; Activity (% of untreated) Observed ([3]; applied alone at 125 g/ha): 35 % of untreated; Activity (% of untreated) Observed ([3]; applied alone at 500 g/ha): 100 % of untreated; Activity (% of untreated) Observed (Ipomea purpurea (PHBPU); applied alone at 31.25 g/ha): 67.5 % of untreated; Activity (% of untreated) Observed (Ipomea purpurea (PHBPU); applied alone at 62.5 g/ha): 97.5 % of untreated; Activity (% of untreated) Observed (Ipomea purpurea (PHBPU); applied alone at 125 g/ha): 40 % of untreated and 50 % of untreated; Activity (% of untreated) Observed (Ipomea purpurea (PHBPU); applied alone at 500 g/ha): 100 % of untreated and 90 % of untreated; Activity (% of untreated) Observed (Setaria fabarii (SETFA); alone 31.25 g/ha): 90 % of untreated; Activity (% of untreated) Observed (Setaria fabarii (SETFA); alone 62.5 g/ha): 100 % of untreated
"CS(=O)(=O)c1ccc(C(=O)C2C(=O)CCCC2=O)c([N+](=O)[O-])c1 [Mesotrione, reference compound]",0 % of untreated,–,25 % of untreated,–,–,–,50 % of untreated,–,57.5 % of untreated,–,10 % of untreated,30 % of untreated,45 % of untreated,5 % of untreated,7.5 % of untreated,12.5 % of untreated,0 % of untreated,0 % of untreated,0 % of untreated,35 % of untreated,–
Bicyclopyrone [reference compound],0 % of untreated,–,25 % of untreated,–,100 % of untreated,–,50 % of untreated,–,57.5 % of untreated,–,0 % of untreated,5 % of untreated,87.5 % of untreated,5 % of untreated,70 % of untreated,12.5 % of untreated,0 % of untreated,0 % of untreated,17.5 % of untreated,35 % of untreated,Activity (% of untreated) Observed ([3]; applied alone at 10 g/ha): 32.5 % of untreated; Activity (% of untreated) Observed ([3]; applied alone at 25 g/ha): 77.5 % of untreated and 95 % of untreated; Activity (% of untreated) Observed ([3]; applied alone at 50 g/ha): 98.5 % of untreated; Activity (% of untreated) Observed (Ipomea purpurea (PHBPU); applied alone at 10 g/ha): 0 % of untreated
S-Metolachlor,–,–,–,–,–,–,–,–,–,–,–,–,–,–,–,–,–,–,–,–,Activity (% of untreated) Observed ([1]; alone 80 g/ha): 65 % of untreated; Activity (% of untreated) Observed ([1]; alone 200 g/ha): 100 % of untreated; Activity (% of untreated) Observed (Setaria fabarii (SETFA); alone 80 g/ha): 85 % of untreated; Activity (% of untreated) Observed (Setaria fabarii (SETFA); alone 200 g/ha): 98.5 % of untreated
